Data: paper PMC8747035, “Design, Synthesis, and Biological Evaluation of 5,6,7,8-Tetrahydrobenzo[4,5]thieno[2,3-d]pyrimidines as Microtubule Targeting Agents” (Molecules, 2022)

How the values were obtained:
Type in all cases: cell-based
LOX IMVI = test: NCI-60 growth inhibition, LOX IMVI; settings: Homo sapiens, Melanoma
From the text: (§1) Compound 4 had better potency than the lead compound 1 in 50 cancer cell lines. (better by 5 to 6-fold in leukemia, 2 to 17-fold in NSCLC, 2 to 6-fold in colon cancer, 2 to 5-fold in CNS cancer, 2 to 25-fold in melanoma, 2 to 5-fold in ovarian cancer, 2 to 9-fold in renal cancer, 2 to 5-fold in prostate cancer, and 2 to 6-fold in breast cancer compared to lead compound 1).

RXF 393 = test: NCI-60 growth inhibition, RXF 393; settings: Homo sapiens, Renal Cancer
From the text: as §1

SK-OV-3 = test: NCI-60 growth inhibition, SK-OV-3; settings: Homo sapiens, Ovarian Cancer
From the text: as §1

UACC-62 = test: NCI-60 growth inhibition, UACC-62; settings: Homo sapiens, Melanoma
From the text: as §1

786-0 = test: NCI-60 growth inhibition, 786-0; settings: Homo sapiens, Renal Cancer
From the text: as §1

BT-549 = test: NCI-60 growth inhibition, BT-549; settings: Homo sapiens, Breast Cancer
From the text: as §1

ACHN = test: NCI-60 growth inhibition, ACHN; settings: Homo sapiens, Renal Cancer
From the text: as §1

SNB-75 = test: NCI-60 growth inhibition, SNB-75; settings: Homo sapiens, CNS Cancer
From the text: as §1

MDA-MB-468 = test: NCI-60 growth inhibition, MDA-MB-468; settings: Homo sapiens, Breast Cancer
From the text: as §1

SF-295 = test: NCI-60 growth inhibition, SF-295; settings: Homo sapiens, CNS Cancer
From the text: as §1

SW-620 = test: NCI-60 growth inhibition, SW-620; settings: Homo sapiens, Colon Cancer
From the text: as §1

CAKI-1 = test: NCI-60 growth inhibition, CAKI-1; settings: Homo sapiens, Renal Cancer
From the text: as §1

MDA-MB-231/ATCC = test: NCI-60 growth inhibition, MDA-MB-231/ATCC; settings: Homo sapiens, Breast Cancer
From the text: as §1

NCI-H322M = test: NCI-60 growth inhibition, NCI-H322M; settings: Homo sapiens, NSCLC
From the text: as §1

MDA-MB-435 = test: NCI-60 growth inhibition, MDA-MB-435; settings: Homo sapiens, Melanoma
From the text: as §1

OVCAR-4 = test: NCI-60 growth inhibition, OVCAR-4; settings: Homo sapiens, Ovarian Cancer
From the text: as §1

SF-268 = test: NCI-60 growth inhibition, SF-268; settings: Homo sapiens, CNS Cancer
From the text: as §1

RPMI-8226 = test: NCI-60 growth inhibition, RPMI-8226; settings: Homo sapiens, Leukemia
From the text: as §1

SK-MEL-28 = test: NCI-60 growth inhibition, SK-MEL-28; settings: Homo sapiens, Melanoma
From the text: as §1

SK-OV-3 cells = test: SRB assay in SK-OV-3 cells; settings: Homo sapiens, read-out: IC50 ± SD in SK-OV-3 Cells
Method: (§2) Comparison of the IC50 values in the parental SK-OV-3 and genetically manipulated SK-OV-3 MDR1-M6/6 cell line allows for the calculation of a relative resistance value, designated Rr. This value is calculated by dividing the IC50 value obtained in the Pgp-expressing SK-OV-3 MDR1-M6/6 cells by the IC50 obtained in the parental SK-OV-3 cells.
(§3) The antiproliferative and cytotoxic effects of the compounds in cancer cells were evaluated using the SRB assay as previously described. MDA-MB-435 cells were obtained from the Lombardi Cancer Center of Georgetown University (Washington, DC, USA). SK-OV-3 and HeLa cells were purchased from ATCC. Details about the generation of the SK-OV-3 MDR1-M6/6 and HeLa WTβIII cells were described previously. The IC50 values represent an average of three independent experiments, each conducted using triplicate points.
(§4) HeLa, A-10, SK-OV-3, and SK-OV-3 MDR1-M6/6 cells were grown in Basal Medium Eagle (Sigma-Aldrich, St. Louis, MO, USA) supplemented with 10% FBS (Hyclone, GE Life Sciences, Logan, UT, USA) 1% GlutaMAX (Gibco, Life Technologies, Waltham, MA, USA) and 50 µg/mL gentamycin (Life Technologies, USA). HeLa WTβIII cells were grown in Dulbecco’s Modified Eagle Medium (Life Technologies) supplemented with 10% FBS and 50 µg/mL gentamycin. MDA-MB-435 cells were maintained in Improved Minimum Essential Medium (Life Technologies) supplemented with 10% FBS and 25 µg/mL gentamycin. All cells were grown at 37 °C in a humidified environment with 5% CO2.

SNB-19 = test: NCI-60 growth inhibition, SNB-19; settings: Homo sapiens, CNS Cancer
From the text: as §1

HOP-62 = test: NCI-60 growth inhibition, HOP-62; settings: Homo sapiens, NSCLC
From the text: as §1

SN12C = test: NCI-60 growth inhibition, SN12C; settings: Homo sapiens, Renal Cancer
From the text: as §1

MOLT-4 = test: NCI-60 growth inhibition, MOLT-4; settings: Homo sapiens, Leukemia
From the text: as §1

SK-MEL-2 = test: NCI-60 growth inhibition, SK-MEL-2; settings: Homo sapiens, Melanoma
From the text: as §1

CCRF-CEM = test: NCI-60 growth inhibition, CCRF-CEM; settings: Homo sapiens, Leukemia
From the text: as §1

SK-OV-3 MDR1-M6/6 cells = test: SRB assay in Pgp-expressing SK-OV-3 MDR1-M6/6 cells; settings: Homo sapiens, SKOV3-MDR1-M6/6, read-out: IC50 ± SD in SK-OV-3 MDR1-M6/6 Cells
Method: as §2, §3, §4

HCC-2998 = test: NCI-60 growth inhibition, HCC-2998; settings: Homo sapiens, Colon Cancer
From the text: as §1

HT29 = test: NCI-60 growth inhibition, HT29; settings: Homo sapiens, HT-29, Colon Cancer
From the text: as §1

HCT-116 = test: NCI-60 growth inhibition, HCT-116; settings: Homo sapiens, Colon Cancer
From the text: as §1

K-562 = test: NCI-60 growth inhibition, K-562; settings: Homo sapiens, K562, Leukemia
From the text: as §1

UO-31 = test: NCI-60 growth inhibition, UO-31; settings: Homo sapiens, Renal Cancer
From the text: as §1

IGROVI = test: NCI-60 growth inhibition, IGROVI; settings: Homo sapiens, Ovarian Cancer
From the text: as §1

EKVX = test: NCI-60 growth inhibition, EKVX; settings: Homo sapiens, NSCLC
From the text: as §1

DU-145 = test: NCI-60 growth inhibition, DU-145; settings: Homo sapiens, Prostate Cancer
From the text: as §1

OVCAR-8 = test: NCI-60 growth inhibition, OVCAR-8; settings: Homo sapiens, Ovarian Cancer
From the text: as §1

NCI-H460 = test: NCI-60 growth inhibition, NCI-H460; settings: Homo sapiens, NSCLC
From the text: as §1

OVCAR-5 = test: NCI-60 growth inhibition, OVCAR-5; settings: Homo sapiens, Ovarian Cancer
From the text: as §1

A549/ATCC = test: NCI-60 growth inhibition, A549/ATCC; settings: Homo sapiens, NSCLC
From the text: as §1

SMILES: COc1ccc(N(C)c2nc(N)nc3sc4c(c23)CCCC4)cc1 [Compound 4, N4-(4-methoxyphenyl)-N4-methyl-5,6,7,8-tetrahydrobenzo[4,5]thieno[2,3-d]pyrimidine-2,4-diamine]
- GI50 (LOX IMVI): 0.0101 µM
- GI50 (RXF 393): 0.00765 µM
- GI50 (SK-OV-3): 0.0156 µM
- GI50 (UACC-62): 0.0149 µM
- GI50 (786-0): 0.0124 µM
- GI50 (BT-549): 0.0175 µM
- GI50 (ACHN): 0.0102 µM
- GI50 (SNB-75): 0.00842 µM
- GI50 (MDA-MB-468): 0.00605 µM
- GI50 (SF-295): 0.0102 µM
- GI50 (SW-620): 0.00563 µM
- GI50 (CAKI-1): 0.0168 µM
- GI50 (MDA-MB-231/ATCC): 0.0109 µM
- GI50 (NCI-H322M): 0.0116 µM
- GI50 (MDA-MB-435): 0.00489 µM
- GI50 (OVCAR-4): 0.00998 µM
- GI50 (SF-268): 0.0159 µM
- GI50 (RPMI-8226): 0.0127 µM
- GI50 (SK-MEL-28): 0.0121 µM
- IC50 (SK-OV-3 cells): 0.0118 ± 0.0011 µM
- GI50 (SNB-19): 0.00904 µM
- GI50 (HOP-62): 0.0177 µM
- GI50 (SN12C): 0.0144 µM
- GI50 (MOLT-4): 0.0088 µM
- GI50 (SK-MEL-2): 0.0118 µM
- GI50 (CCRF-CEM): 0.00712 µM
- IC50 (SK-OV-3 MDR1-M6/6 cells): 0.0175 ± 0.0008 µM
- GI50 (HCC-2998): 0.0118 µM
- GI50 (HT29): 0.00621 µM
- GI50 (HCT-116): 0.00546 µM
- GI50 (K-562): 0.00272 µM
- GI50 (UO-31): 0.0118 µM
- GI50 (IGROVI): 0.0128 µM
- GI50 (EKVX): 0.0112 µM
- GI50 (DU-145): 0.0156 µM
- GI50 (OVCAR-8): 0.0181 µM
- GI50 (NCI-H460): 0.0104 µM
- GI50 (OVCAR-5): 0.0108 µM
- GI50 (A549/ATCC): 0.012 µM
